The values that follow come from patent US20250304576A1 (Cancer Research Technology Limited, priority 2022, published 2025).

The target in one test is T1, Recombinant IKKα (Homo sapiens, UniProt O15111).
T1 construct: purchased Millipore, Dundee, UK
T1 sequence (O15111 1-745): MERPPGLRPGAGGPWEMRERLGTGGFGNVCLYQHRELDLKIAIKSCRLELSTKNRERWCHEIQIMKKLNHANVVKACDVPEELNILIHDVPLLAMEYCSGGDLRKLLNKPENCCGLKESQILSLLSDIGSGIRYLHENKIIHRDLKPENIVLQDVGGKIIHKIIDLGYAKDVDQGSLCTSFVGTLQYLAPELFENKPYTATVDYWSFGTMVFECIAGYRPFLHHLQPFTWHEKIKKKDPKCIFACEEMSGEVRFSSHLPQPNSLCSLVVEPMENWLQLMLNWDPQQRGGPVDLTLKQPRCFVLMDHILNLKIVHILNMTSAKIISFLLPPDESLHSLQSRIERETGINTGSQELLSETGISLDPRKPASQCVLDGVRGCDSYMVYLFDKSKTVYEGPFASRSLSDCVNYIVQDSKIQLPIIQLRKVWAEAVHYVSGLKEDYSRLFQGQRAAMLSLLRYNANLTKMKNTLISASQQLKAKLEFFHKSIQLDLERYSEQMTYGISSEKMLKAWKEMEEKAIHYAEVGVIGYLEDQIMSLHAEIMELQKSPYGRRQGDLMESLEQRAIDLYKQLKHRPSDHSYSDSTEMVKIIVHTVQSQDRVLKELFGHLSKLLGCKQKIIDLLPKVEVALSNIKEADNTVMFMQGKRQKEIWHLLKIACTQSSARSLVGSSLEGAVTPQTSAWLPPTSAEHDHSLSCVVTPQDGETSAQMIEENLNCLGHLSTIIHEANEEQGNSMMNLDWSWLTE
Nature of the test: DELFIA IKKα kinase assay (apparent Ki, Cheng-Prusoff). In kind it is biochemical. In outline: (§1)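 Recombinant IKKα or IKKβ (37 nM) with 0.375 μM biotinylated IκB-α (Ser32) peptide and 40 μM ATP in 40 mM Tris-HCl pH 7.5, 20 mM MgCl2, 60 min at 30° C. Phospho-substrate captured on streptavidin and detected by anti-phospho-IκB-α plus europium anti-mouse IgG time-resolved fluorescence; apparent Ki via Cheng-Prusoff.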

The target of a further test is T2, Recombinant IKKβ (Homo sapiens, UniProt O14920).
T2 construct: purchased Millipore, Dundee, UK
T2 sequence (O14920 1-756): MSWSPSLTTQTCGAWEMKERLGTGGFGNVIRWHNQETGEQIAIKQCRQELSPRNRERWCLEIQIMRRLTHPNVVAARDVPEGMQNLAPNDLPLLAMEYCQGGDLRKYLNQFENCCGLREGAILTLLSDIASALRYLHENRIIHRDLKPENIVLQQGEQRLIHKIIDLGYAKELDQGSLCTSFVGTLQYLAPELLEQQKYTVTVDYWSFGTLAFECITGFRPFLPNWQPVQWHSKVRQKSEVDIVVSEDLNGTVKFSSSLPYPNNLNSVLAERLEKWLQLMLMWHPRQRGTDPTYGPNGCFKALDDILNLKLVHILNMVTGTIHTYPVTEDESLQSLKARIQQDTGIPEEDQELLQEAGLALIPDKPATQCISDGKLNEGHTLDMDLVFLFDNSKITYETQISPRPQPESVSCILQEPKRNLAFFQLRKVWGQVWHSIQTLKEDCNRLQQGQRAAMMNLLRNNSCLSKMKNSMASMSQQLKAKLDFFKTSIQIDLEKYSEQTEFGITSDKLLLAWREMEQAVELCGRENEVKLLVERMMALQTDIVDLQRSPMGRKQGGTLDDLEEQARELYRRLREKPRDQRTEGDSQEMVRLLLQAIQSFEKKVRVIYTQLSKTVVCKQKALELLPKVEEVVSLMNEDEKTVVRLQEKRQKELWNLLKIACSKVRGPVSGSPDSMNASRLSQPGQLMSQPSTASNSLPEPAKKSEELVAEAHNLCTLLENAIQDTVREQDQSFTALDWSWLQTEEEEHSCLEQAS
Description: DELFIA IKKβ kinase assay (apparent Ki, Cheng-Prusoff). In kind it is biochemical. In outline: as §1

Setting [1] is: non-italicised figure: DELFIA assay.
The mark [2] stands for this setting: DELFIA assay (first line of an example).

As for `CC(C)(C)C#Cc1cc(-c2ccnc(NCC3CC3)c2)cc2c(N)n[nH]c12` [Example 157, 5-(2-((Cyclopropylmethyl)amino)pyridin-4-yl)-7-(3,3-dimethylbut-1-yn-1-yl)-1H-indazol-3-amine], the Ki was 141 nM on Recombinant IKKα (setting [1]) and 2800 nM on Recombinant IKKβ (setting [1]).
For `CC(C)(C)C#Cc1cc(-c2ccnc(NCCC#N)c2)cc2c(N)n[nH]c12` [Example 159, 3-((4-(3-Amino-7-(3,3-dimethylbut-1-yn-1-yl)-1H-indazol-5-yl)pyridin-2-yl)amino)propanenitrile], the Ki at Recombinant IKKα (setting [1]) was 22 nM; on Recombinant IKKβ (setting [1]) it was 1960 nM.
In the case of `CC(C)(C)C#Cc1cc(-c2ccnc(NCCO)c2)cc2c(N)n[nH]c12` [Example 160, 2-((4-(3-Amino-7-(3,3-dimethylbut-1-yn-1-yl)-1H-indazol-5-yl)pyridin-2-yl)amino)ethan-1-ol], the Ki turned out to be 8 nM on Recombinant IKKα (setting [1]) and 1340 nM at Recombinant IKKβ (setting [1]).
Turning to `CC(C)(C)C#Cc1cc(-c2ccnc(NCCN)c2)cc2c(N)n[nH]c12` [Example 161, N^1-(4-(3-Amino-7-(3,3-dimethylbut-1-yn-1-yl)-1H-indazol-5-yl)pyridin-2-yl)ethane-1,2-diamine], the Ki worked out at 128 nM at Recombinant IKKα (setting [1]) and 7610 nM on Recombinant IKKβ (setting [1]).
Turning to `COCCNc1cc(-c2cc(C#CC(C)(C)C)c3[nH]nc(N)c3c2)ccn1` [Example 162, 7-(3,3-dimethylbut-1-yn-1-yl)-5-(2-((2-methoxyethyl)amino)pyridin-4-yl)-1H-indazol-3-amine], the Ki on Recombinant IKKα (setting [1]) is 35 nM; at Recombinant IKKβ (setting [1]), 1110 nM.
The matching figures for `COCCCNc1cc(-c2cc(C#CC(C)(C)C)c3[nH]nc(N)c3c2)ccn1` [Example 163, 7-(3,3-Dimethylbut-1-yn-1-yl)-5-(2-((3-methoxypropyl)amino)pyridine-4-yl)-1H-indazol-3-amine]: > 3000 nM and > 30000 nM.
On to `CC(=O)Nc1cc(-c2cc(C#CC(C)(C)C)c3[nH]nc(N)c3c2)ccn1` [Example 164, N-(4-(3-Amino-7-(3,3-dimethylbut-1-yn-1-yl)-1H-indazol-5-yl)pyridin-2-yl)acetamide], for which the figures for the Ki on Recombinant IKKα (setting [1]) and on Recombinant IKKβ (setting [1]) were 15 nM and 350 nM, respectively.
In the case of `CCC(=O)Nc1cc(-c2cc(C#CC(C)(C)C)c3[nH]nc(N)c3c2)ccn1` [Example 165, N-(4-(3-Amino-7-(3,3-dimethylbut-1-yn-1-yl)-1H-indazol-5-yl)pyridin-2-yl)propionamide], the Ki worked out at 7 nM at Recombinant IKKα (setting [1]) and 780 nM at Recombinant IKKβ (setting [1]).
As for `CC(C)(C)C#Cc1cc(-c2ccnc(NC(=O)C3CC3)c2)cc2c(N)n[nH]c12` [Example 167, N-(4-(3-Amino-7-(3,3-dimethylbut-1-yn-1-yl)-1H-indazol-5-yl)pyridin-2-yl)cyclopropane carboxamide], the Ki on Recombinant IKKα (setting [1]) is 15 nM; at Recombinant IKKβ (setting [1]) it was 1110 nM.
Take `CC(C)C(=O)Nc1cc(-c2cc(C#CC(C)(C)C)c3[nH]nc(N)c3c2)ccn1` [Example 168, N-(4-(3-Amino-7-(3,3-dimethylbut-1-yn-1-yl)-1H-indazol-5-yl)pyridin-2-yl)isobutyramide]: the Ki was 273 nM at Recombinant IKKα (setting [1]) and 2580 nM on Recombinant IKKβ (setting [1]).
For `CC(C)(C)C#Cc1cc(-c2ccnc(NC(=O)CC3CC3)c2)cc2c(N)n[nH]c12` [Example 170, N-(4-(3-Amino-7-(3,3-dimethylbut-1-yn-1-yl)-1H-indazol-5-yl)pyridin-2-yl)-2-cyclopropylacetamide], the Ki amounted to 26 nM on Recombinant IKKα (setting [1]) and 1550 nM at Recombinant IKKβ (setting [1]).
As for `CC(C)CC(=O)Nc1cc(-c2cc(C#CC(C)(C)C)c3[nH]nc(N)c3c2)ccn1` [Example 171, N-(4-(3-Amino-7-(3,3-dimethylbut-1-yn-1-yl)-1H-indazol-5-yl)pyridine-2-yl)-3-methylbutanamide], the Ki on Recombinant IKKα (setting [1]) was determined as 122 nM; at Recombinant IKKβ (setting [1]), 5680 nM.
As to `CC(C)(C)C#Cc1cc(-c2ccnc(NC(=O)C3CCC3)c2)cc2c(N)n[nH]c12` [Example 172, N-(4-(3-Amino-7-(3,3-dimethylbut-1-yn-1-yl)-1H-indazol-5-yl)pyridin-2-yl)cyclobutanecarboxamide], the Ki on Recombinant IKKα (setting [1]) was 89 nM; at Recombinant IKKβ (setting [1]), 3330 nM.
Take `CC(C)(C)C#Cc1cc(-c2ccnc(NC(=O)C3CCCC3)c2)cc2c(N)n[nH]c12` [Example 173, N-(4-(3-Amino-7-(3,3-dimethylbut-1-yn-1-yl)-1H-indazol-5-yl)pyridin-2-yl)cyclopentanecarboxamide]: the Ki on Recombinant IKKα (setting [1]) was 298 nM; on Recombinant IKKβ (setting [1]) it was 23800 nM.
Take `CC(C)(C)C#Cc1cc(-c2ccnc(NC(=O)CO)c2)cc2c(N)n[nH]c12` [Example 174, N-(4-(3-Amino-7-(3,3-dimethylbut-1-yn-1-yl)-1H-indazol-5-yl)pyridin-2-yl)-2-hydroxyacetamide]: the figures for the Ki at Recombinant IKKα (setting [1]) and on Recombinant IKKβ (setting [1]) were 20 nM and 611 nM, respectively.
In the same order, the values of `COCC(=O)Nc1cc(-c2cc(C#CC(C)(C)C)c3[nH]nc(N)c3c2)ccn1` [Example 175, N-(4-(3-Amino-7-(3,3-dimethylbut-1-yn-1-yl)-1H-indazol-5-yl)pyridin-2-yl)-2-methoxyacetamide] are 24 nM and 1110 nM.
As to `COC(=O)Nc1cc(-c2cc(C#CC3CC3)c3[nH]nc(N)c3c2)ccn1` [Example 179, Methyl (4-(3-amino-7-(cyclopropylethynyl)-1H-indazol-5yl)-pyridin-2-yl)carbamate], the Ki on Recombinant IKKα (setting [1]) turned out to be 10 nM; on Recombinant IKKβ (setting [1]) it was 962 nM.
As for `COC(=O)Nc1cc(-c2cc(C#CC(C)(C)O)c3[nH]nc(N)c3c2)ccn1` [Example 180, Methyl (4-(3-amino-7-(3-hydroxy-3-methylbut-1-yn-1-yl)-1H-indazol-5-yl)pyridin-2-yl)carbamate], the Ki is 5 nM at Recombinant IKKα (setting [1]) and 826 nM on Recombinant IKKβ (setting [1]).
As for `COC(=O)Nc1cc(-c2cc(C#CC(C)(C)N)c3[nH]nc(N)c3c2)ccn1` [Example 181, Methyl (4-(3-amino-7-(3-amino-3-methylbut-1-yn-1-yl)-1H-indazol-5-yl)pyridin-2-yl)carbamate1], the Ki on Recombinant IKKα (setting [1]) turned out to be 20 nM; at Recombinant IKKβ (setting [1]) it was 515 nM.
The matching figures for `COC(=O)Nc1cc(-c2cc(C#CC(C)(C)OC)c3[nH]nc(N)c3c2)ccn1` [Example 182, Methyl (4-(3-amino-7-(3-methoxy-3-methylbut-1-yn-1-yl)-1H-indazol-5-yl)pyridin-2-yl)carbamate]: 34 nM and 363 nM.
Regarding `COC(=O)Nc1cc(-c2cc(C#CCN3CCOCC3)c3[nH]nc(N)c3c2)ccn1` [Example 183, Methyl (4-(3-amino-7-(3-morpholinoprop-1-yn-1-yl)-1H-indazol-5-yl)pyridin-2-yl)carbamate], the Ki on Recombinant IKKα (setting [1]) came to 47 nM; on Recombinant IKKβ (setting [1]), 721 nM.
Consider `CNC(=O)Nc1cc(-c2cc(C#CC(C)(C)C)c3[nH]nc(N)c3c2)ccn1` [Example 186, 1-(4-(3-Amino-7-(3,3-dimethylbut-1-yn-1-yl)-1H-indazol-5-yl)pyridin-2-yl)-3-methylurea], for which the Ki at Recombinant IKKα (setting [1]) is 34 nM; at Recombinant IKKβ (setting [1]), 3490 nM.
With `CCNC(=O)Nc1cc(-c2cc(C#CC(C)(C)C)c3[nH]nc(N)c3c2)ccn1` [Example 187, 1-(4-(3-Amino-7-(3,3-dimethylbut-1-yn-1-yl)-1H-indazol-5-yl)pyridin-2-yl)-3-ethylurea], the results for the Ki on Recombinant IKKα (setting [1]) and on Recombinant IKKβ (setting [1]) were 438 nM and 8100 nM, respectively.
Consider `CC(C)(C)C#Cc1cc(-c2ccnc(NC(=O)Nc3ccccc3)c2)cc2c(N)n[nH]c12` [Example 189, 1-(4-(3-Amino-7-(3,3-dimethylbut-1-yn-1-yl)-1H-indazol-5-yl)pyridine-2-yl)-3-phenylurea], for which the Ki came to 113 nM at Recombinant IKKα (setting [2]) and 19300 nM on Recombinant IKKβ (setting [2]).
